Laboratory results taken from US20260174778A1, “SULFONAMIDE COMPOUND, AND PREPARATION METHOD THEREFOR AND USE THEREOF” (SHANGHAI HENLIUS BIOTECH, INC., priority 2023, published 2026).

System: breast cancer cell line ZR-75-1
Assay: Inhibition of proliferation of breast cancer cell line ZR-75-1 (CellTiter-Glo)
Type: cell-based
Details: Homo sapiens, 240 h, proliferation of ZR-75-1 cells, 10 days of incubation, read-out: IC50 (KAT6A)
Source text: Test Example 1: Experiment for Determining Inhibitory Effects of Compounds on Proliferation of Breast Cancer Cell Line ZR-75-1
ATP is an indicator of the metabolism of living cells. The CellTiter-Glo® Luminescent Cell Viability Assay is a homogeneous assay method for determining the number of viable cells by quantifying ATP.
• 1) ZR-75-1 (Cell Bank of Chinese Academy of Sciences, TCHul26) • 2) RPMI-1640 medium (Gibco, 11875-093) • 3) Fetal Bovine Serum, New Zealand (Gibco,10091-148) • 4) Penicillin-streptomycin (10,000 U/mL) (Gibco, 15140-122) • 5) Trypsin-EDTA (0.25%), containing phenol red (Gibco, 25200-072) • 6) DPBS (Shanghai BasalMedia, B210KJ) • 7) Corning® 96-well Clear Flat Bottom Ultra-Low Attachment Microplate (Corning, Cat. No. 3474) • 8) 330 μL 96 Holes Deep Well Plate, transparents, 96 Round Holes, V-shaped Bottom, Low Retention (Stellar Scientific, DP33VR-9-NS) • 9) Corning® 96-well solid white flat-bottom polystyrene microplate (Corning, Cat. No. 3917) • 10) CellTiter-Glo® Luminescent Cell Viability Assay (Promega, G7573) • 11) Countstar® BioMed automatic cell counter • 12) Trypan blue solution, 0.4% (Gibco, Cat. No. 15250061) • 13) 37° C. constant-temperature incubator (Thermo, FORMA STERI-CYCLE i160 LK) • 14) Biosafety cabinet (Thermo, 1379)
• 1) The formula of the complete medium for ZR-75-1 was as follows: 500 mL RPMI-1640+10% FBS+1% penicillin-streptomycin. • 2) Thirty minutes before cell plating, the complete medium, serum, trypsin, and DPBS for use in ZR-75-1 cell culture were pre-warmed in a water bath at 37° C. • 3) The ZR-75-1 cells were taken out of the incubator, and the medium was removed by pipetting. The cells were rinsed once with 5 mL of DPBS, and then the DPBS was discarded. • 4) The cells in the T75 culture flask were digested with 1-3 mL of (0.25%) trypsin-EDTA. After the trypsin was added, the culture flask was incubated in an incubator at 37° C. for 2-5 min, and dispersion was confirmed by microscopic examination. Tapping or agitating the culture flask was avoided to prevent disturbing the cells, which might cause cell clumping. • 5) 9 mL of the complete medium was added to terminate the digestion, thus forming a cell suspension, which was then mixed well by pipetting. • 6) Cell suspension counting: 20 μL of the cell suspension was pipetted and diluted with 20 µL of the 0.4% trypan blue solution (Gibco, Cat. No. 15250061). The total cell count and the percentage of cell viability were determined using the Countstar® BioMed automatic cell counter. Only cells with a cell viability of no less than 95% were used for the experiment. • 7) The concentration of the cell suspension was adjusted to 2000 cells/well, and the cell suspension was added to a 96-well cell culture plate at 80 μL/well. Treatment of Cells with Compounds • 1) Twenty-four hours after cell plating, the cell plate was taken out. • 2) Each compound was prepared with a complete medium. The stock solution was a 10 mM solution in DMSO, which was first diluted with the medium to 100 μM, then diluted to 1 μM, and finally subjected to a 5-fold serial dilution across a total of 9 concentration gradients. • 3) 20 μL of the compound diluted with the medium was added to each well of the cell culture plate, which already contained 80 μL of the medium. The final concentration started at 200 nM, followed by a 5-fold serial dilution across a total of 9 concentration gradients. Two replicate wells were set for each compound, and each plate could be used to test 3 compounds, with the DMSO content controlled within 0.5%. • 4) The culture medium was replenished once every three days with a complete medium containing the same concentration of the test compound, with 20 μL/well added each time.
After 10 days of incubation with the compound, the cell culture plate was taken out, and the CellTiter-Glo® reagent was added at 50 μL/well. […]

| Compound | IC50 [nM] |
| --- | --- |
| COc1cc(Cn2cccn2)cc2onc(NS(=O)(=O)c3ccccc3OC3CCC3)c12 [Compound 1, N-(6-((1H-Pyrazol-1-yl)methyl)-4-methoxybenzo[d]isoxazol-3-yl)-2-cyclobutoxybenzenesulfonamide] | 0.5 to 2 |
| COc1cc(Cn2cccn2)cc2onc(NS(=O)(=O)c3ccccc3OC3CC(F)(F)C3)c12 [Compound 2, N-(6-((1H-Pyrazol-1-yl)methyl)-4-methoxybenzo[d]isoxazol-3-yl)-2-(3,3-difluorocyclobutoxy)benzenesulfonamide] | 2 to 10 |
| COc1cc(Cn2cccn2)cc2onc(NS(=O)(=O)c3cc(C(C)(C)C)ccc3OC3CCC3)c12 [Compound 3, N-(6-((1H-Pyrazol-1-yl)methyl)-4-methoxybenzo[d]isoxazol-3-yl)-5-(tert-butyl)-2-cyclobutoxybenzenesulfonamide] | 2 to 10 |
| CC(C)Oc1cc(Cn2cccn2)cc2onc(NS(=O)(=O)c3cc(C(C)(C)C)ccc3OC3CCC3)c12 [Compound 6, N-(6-((1H-Pyrazol-1-yl)methyl)-4-isopropoxybenzo[d]isoxazol-3-yl)-5-(tert-butyl)-2-cyclobutoxybenzenesulfonamide] | 2 to 10 |
| COc1c(F)c(Cn2cccn2)cc2onc(NS(=O)(=O)c3cc(C(C)(C)C)ccc3OC3CCC3)c12 [Compound 7, N-(6-((1H-Pyrazol-1-yl)methyl)-5-fluoro-4-methoxybenzo[d]isoxazol-3-yl)-5-(tert-butyl)-2-cyclobutoxybenzenesulfonamide] | 0.5 to 2 |
| CC(C)(C)c1ccc(OC2CCC2)c(S(=O)(=O)Nc2noc3cc(Cn4cccn4)c(C4CC4)cc23)c1 [Compound 8, N-(6-((1H-Pyrazol-1-yl)methyl)-5-cyclopropylbenzo[d]isoxazol-3-yl)-5-(tert-butyl)-2-cyclobutoxybenzenesulfonamide] | 10 to 50 |
| COc1cc(Cn2cccn2)cc2onc(NS(=O)(=O)c3cc(C(C)C)ccc3OCC(F)F)c12 [Compound 10, N-(6-((1H-Pyrazol-1-yl)methyl)-4-methoxybenzo[d]isoxazol-3-yl)-2-(2,2-difluoroethoxy)-5-isopropylbenzenesulfonamide] | 2 to 10 |
| COc1ccc2c(c1S(=O)(=O)Nc1noc3cc(Cn4cccn4)cc(OC)c13)OCCC21CCC1 [Compound 15, N-(6-((1H-Pyrazol-1-yl)methyl)-4-methoxybenzo[d]isoxazol-3-yl)-7-methoxyspiro[chromane-4,1′-cyclobutane]-8-sulfonamide] | < 0.5 |
| COc1ccc2c(c1S(=O)(=O)Nc1noc3cc(Cn4cccn4)cc(OC)c13)OCCC2(C)C [Compound 16, N-(6-((1H-Pyrazol-1-yl)methyl)-4-methoxybenzo[d]isoxazol-3-yl)-7-methoxy-4,4-dimethylchromane-8-sulfonamide] | < 0.5 |
| COc1ccc2c(c1S(=O)(=O)Nc1noc3cc(Cn4cccn4)cc(OC)c13)OC(C)(C)O2 [Compound 18, N-(6-((1H-Pyrazol-1-yl)methyl)-4-methoxybenzo[d]isoxazol-3-yl)-5-methoxy-2,2-dimethylbenzo[d][1,3]dioxole-4-sulfonamide] | 2 to 10 |
| COc1ccc2c(c1S(=O)(=O)Nc1noc3cc(Cn4cccn4)cc(OC)c13)OC(C)(C)C2 [Compound 19, N-(6-((1H-Pyrazol-1-yl)methyl)-4-methoxybenzo[d]isoxazol-3-yl)-6-methoxy-2,2-dimethyl-2,3-dihydrobenzofuran-7-sulfonamide] | 2 to 10 |
| COc1cccc(OC2CCC2)c1S(=O)(=O)Nc1noc2cc(Cn3cccn3)cc(OC)c12 [Compound 21, N-(6-((1H-Pyrazol-1-yl)methyl)-4-methoxybenzo[d]isoxazol-3-yl)-2-cyclobutoxy-6-methoxybenzenesulfonamide] | 2 to 10 |
| CCc1ccc(OC2CCC2)c(S(=O)(=O)Nc2noc3cc(Cn4cccn4)cc(OC)c23)c1 [Compound 22, N-(6-((1H-Pyrazol-1-yl)methyl)-4-methoxybenzo[d]isoxazol-3-yl)-2-cyclobutoxy-5-ethylbenzenesulfonamide] | 2 to 10 |
| COc1cc(Cn2cccn2)cc2onc(NS(=O)(=O)c3cc(C(C)C)ccc3OC3CCC3)c12 [Compound 23, N-(6-((1H-Pyrazol-1-yl)methyl)-4-methoxybenzo[d]isoxazol-3-yl)-2-cyclobutoxy-5-isopropylbenzenesulfonamide] | 2 to 10 |

Continued, values first:

| IC50 [nM] | Compound |
| --- | --- |
| 10 to 50 | COc1cc(Cn2cccn2)cc2onc(NS(=O)(=O)c3cccc4c3OCO4)c12 [Compound 4, N-(6-((1H-Pyrazol-1-yl)methyl)-4-methoxybenzo[d]isoxazol-3-yl)benzo[d][1,3]dioxole-4-sulfonamide] |
| ≥ 50 | COc1cc(Cn2cccn2)cc2onc(NS(=O)(=O)c3cccc4c3OC(F)(F)O4)c12 [Compound 5, N-(6-((1H-Pyrazol-1-yl)methyl)-4-methoxybenzo[d]isoxazol-3-yl)-2,2-difluorobenzo[d][1,3]dioxole-4-sulfonamide] |
| ≥ 50 | COc1ccccc1S(=O)(=O)Nc1nsc2cc(Cn3cccn3)cc(OC)c12 [Compound 9, N-(6-((1H-Pyrazol-1-yl)methyl)-4-methoxybenzo[d]isothiazol-3-yl)-2-methoxybenzenesulfonamide] |
| 2 to 10 | COc1ccccc1S(=O)(=O)Nc1noc2cc(Cn3cccn3)cc(OC(F)F)c12 [Compound 11, N-(6-((1H-Pyrazol-1-yl)methyl)-4-(difluoromethoxy)benzo[d]isoxazol-3-yl)-2-methoxybenzenesulfonamide] |
| 2 to 10 | COc1cccc(OC)c1S(=O)(=O)Nc1noc2cc(Cn3cccn3)cc(OC(F)F)c12 [Compound 12, N-(6-((1H-Pyrazol-1-yl)methyl)-4-(difluoromethoxy)benzo[d]isoxazol-3-yl)-2,6-dimethoxybenzenesulfonamide] |
| 0.5 to 2 | COc1ccc(C(C)(C)O)cc1S(=O)(=O)Nc1noc2cc(Cn3cccn3)cc(OC)c12 [Compound 13, N-(6-((1H-Pyrazol-1-yl)methyl)-4-methoxybenzo[d]isoxazol-3-yl)-5-(2-hydroxypropan-2-yl)-2-methoxybenzenesulfonamide] |
| 0.5 to 2 | COc1ccc2c(c1S(=O)(=O)Nc1noc3cc(Cn4cccn4)cc(OC)c13)OCCO2 [Compound 14, N-(6-((1H-Pyrazol-1-yl)methyl)-4-methoxybenzo[d]isoxazol-3-yl)-6-methoxy-2,3-dihydrobenzo[b][1,4]dioxine-5-sulfonamide] |
| 0.5 to 2 | COc1ccc2c(c1S(=O)(=O)Nc1noc3cc(Cn4cccn4)cc(OC)c13)OCO2 [Compound 17, N-(6-((1H-Pyrazol-1-yl)methyl)-4-methoxybenzo[d]isoxazol-3-yl)-5-methoxybenzo[d][1,3]dioxole-4-sulfonamide] |
| 0.5 to 2 | COc1ccc2c(c1S(=O)(=O)Nc1noc3cc(Cn4cccn4)cc(OC)c13)OCC2(C)C [Compound 20, N-(6-((1H-Pyrazol-1-yl)methyl)-4-methoxybenzo[d]isoxazol-3-yl)-6-methoxy-3,3-dimethyl-2,3-dihydrobenzofuran-7-sulfonamide] |
| 10 to 50 | COc1cccc(OC)c1S(=O)(=O)Nc1nsc2cc(Cn3cccn3)cc(OC)c12 [Compound 24, N-(6-((1H-Pyrazol-1-yl)methyl)-4-methoxybenzo[d]isothiazol-3-yl)-2,6-dimethoxybenzenesulfonamide] |
| ≥ 50 | COc1cccc(OC)c1S(=O)(=O)Nc1nsc2cc(Cn3cccn3)ccc12 [Compound 25, N-(6-((1H-Pyrazol-1-yl)methyl)benzo[d]isothiazol-3-yl)-2,6-dimethoxybenzenesulfonamide] |
